Assay: Stability to polymorphic conversion (heating, grinding, high relative humidity)
Assay type: physicochemical
Settings: when heated, during grinding and/or high relative humidity

## Cc1cc(C[C@@H](NC(=O)N2CCC(c3cc4ccccc4[nH]c3=O)CC2)C(=O)N2CCN(C3CCN(C)CC3)CC2)cc2cn[nH]c12 [Form B]
  stability to polymorphic conversion: particularly stable to polymorphic conversion

From patent US20240199578A1, “SOLID STATE FORMS OF ZAVEGEPANT AND PROCESS FOR PREPARATION THEREOF” (TEVA CZECH INDUSTRIES S.R.O, priority 2021, published 2024)
